Reference: BigSolDB 2.1

O=C[C@H](O)[C@H](O)[C@H](O)CO
solubility (mole fraction)
Details	283.15 K	288.15 K	293.15 K	298.15 K	303.15 K	313.15 K	323.15 K
in acetone	0.00234	–	0.00302	–	0.00509	0.0077	0.0118
in acetonitrile	0.00109	–	0.00144	–	0.0022	0.00357	0.00626
in dichloromethane	0.000102	0.000257	0.000367	0.000402	0.000529	–	–
in ethanol	0.00798	–	0.0121	–	0.0213	0.0394	0.0675
in ethyl acetate	0.000876	–	0.00107	–	0.00162	0.00257	0.0036
in isobutanol	0.00334	–	0.00421	–	0.0063	0.0102	0.0156
in isopropanol	0.00457	–	0.00703	–	0.0117	0.021	0.0426
in methanol	0.0313	0.0457	0.0587	0.0771	0.108	–	–
in n-butanol	0.00388	–	0.00485	–	0.00814	0.0124	0.0201
in n-hexane	3.77e-05	–	7.32e-05	–	0.000101	0.000174	0.000205
in n-propanol	0.00515	–	0.00691	–	0.0112	0.0179	0.0305
in sec-butanol	0.00484	–	0.00567	–	0.00894	0.0152	0.0242
